Results: ChEMBL document CHEMBL1201862, “PubChem BioAssay data set” (2004)
The source made the active and inactive calls.

How the values were obtained:
Caspase-7 = Caspase-7 (Homo sapiens, UniProt P55210); experiment: human caspase-7 inhibitors, dose response, selectivity assay for caspase-6 inhibitor project, biochemical, DEVD-R110 fluorescence, cherry-pick (AID 743295)
[1] = biological target: T1, Polyadenylate-binding protein 1 (Homo sapiens, UniProt P11940); experiment: PABP1 MLLE–PAM2 interaction inhibitors, dose response, miRNA deadenylation inhibitor project, biochemical, fluorescence polarization, Cy5-PAM2 peptide, secondary (AID 602260); type: functional; conditions: read-out: IC50_Mean
Caspase-9 = Caspase-9 (Homo sapiens, UniProt P55211); experiment: caspase-9 enzyme inhibition, dose response, selectivity assay for caspase-6 inhibitor project, biochemical, fluorescence, plate reader, cherry-picked samples (AID 743293)
Caspase-6 = biological target: T2, Caspase-6 (Homo sapiens, UniProt P55212); experiment: human caspase-6 inhibitors, dose response, biochemical, VEID-R110 fluorescence, cherry-pick (AID 720632)
T2 sequence (P55212 whole entry): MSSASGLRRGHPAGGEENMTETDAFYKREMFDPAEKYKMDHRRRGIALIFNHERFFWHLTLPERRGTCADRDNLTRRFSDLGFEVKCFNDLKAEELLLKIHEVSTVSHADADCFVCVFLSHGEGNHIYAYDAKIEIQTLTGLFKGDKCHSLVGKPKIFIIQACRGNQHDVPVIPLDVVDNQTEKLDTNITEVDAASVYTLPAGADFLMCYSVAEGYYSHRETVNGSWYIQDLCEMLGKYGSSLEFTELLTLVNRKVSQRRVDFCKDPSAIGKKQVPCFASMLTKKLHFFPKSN

[2] = biological target: T3, Rac GTPase-activating protein 1 (Homo sapiens, UniProt Q9H0H5); experiment: MgcRacGAP GTPase-activating activity inhibitors, confirmation, biochemical, ADP Hunter fluorescence, primary and confirmatory (AID 624330); type: functional
T3 sequence (Q9H0H5 whole entry): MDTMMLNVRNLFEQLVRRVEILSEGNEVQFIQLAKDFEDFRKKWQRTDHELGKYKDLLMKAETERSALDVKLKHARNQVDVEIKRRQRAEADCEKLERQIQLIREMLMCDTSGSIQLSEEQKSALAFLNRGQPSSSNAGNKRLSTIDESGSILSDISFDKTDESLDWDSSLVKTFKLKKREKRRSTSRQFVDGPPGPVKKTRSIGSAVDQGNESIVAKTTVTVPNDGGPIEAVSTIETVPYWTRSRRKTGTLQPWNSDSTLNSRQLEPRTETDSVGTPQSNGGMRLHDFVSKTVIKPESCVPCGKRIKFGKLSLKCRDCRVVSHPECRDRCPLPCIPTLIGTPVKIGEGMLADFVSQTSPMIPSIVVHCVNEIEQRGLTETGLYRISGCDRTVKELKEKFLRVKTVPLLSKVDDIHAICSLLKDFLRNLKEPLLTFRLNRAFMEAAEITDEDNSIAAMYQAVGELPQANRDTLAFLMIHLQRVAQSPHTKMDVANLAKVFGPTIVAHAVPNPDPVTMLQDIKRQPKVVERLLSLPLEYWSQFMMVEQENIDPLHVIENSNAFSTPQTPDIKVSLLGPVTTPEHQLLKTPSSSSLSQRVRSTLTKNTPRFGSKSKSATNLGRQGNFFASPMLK

[3] = biological target: T1, Polyadenylate-binding protein 1; experiment: PABP1 MLLE–PAM2 binding inhibitor potency, dose response, biochemical, fluorescence polarization, FITC-PAM2 peptide (AID 602259); type: functional; conditions: read-out: IC50_Mean
[4] = inhibitors of firefly luciferase expression or activity, dose response, H4 neuroglioma cells, luminescence (AID 1990); type: functional, cell-based
[5] = inhibitors of clade B AD8 Env fusion, dose response, cell-based, cherry-pick (AID 652062); type: functional;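 further: luciferase signal from cell-cell fusion driven by HIV-1 clade B AD8 Env; potency is for inhibitors of fusion seen as a drop in luminescence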
[6] = Luminescence Cell-Based Dose Response HTS to Identify Inhibitors of 5'UTR Stem-Loop Driven Prion Protein mRNA Translation in H4 Neuroglioblastoma Cells. [Related pubchem assays: 1827 (Project Summary), 1813 (Primary HTS)]; type: functional
[7] = inhibitors of Vif binding to APOBEC3G peptide, primary screen, biochemical, TR-FRET, GST-Vif 1-94, biotin-A3G peptide, dose response retest (AID 1117319); type: functional;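 further: TR-FRET signal of purified GST-Vif binding a biotinylated A3G peptide; inhibitors lower the FRET signal by blocking Vif and A3G binding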
[8] = inhibitors of SNCA 5'UTR-driven reporter translation, confirmation, H4 neuroglioma cells, luminescence (AID 1988); type: functional, cell-based
[9] = inhibitors of HIV Env-driven cell fusion, dose response, cherry-pick (AID 652057); type: functional, cell-based
[10] = off-target signal loss in HeLa-CEM21 co-culture – HeLa F-luc CTL cells, cherry-picked, counter-screen for HIV-1 Env fusion inhibitor project, dose response (AID 652040); type: functional, cell-based;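 further: potency for signal decrease marking cytotoxic or nonspecific inhibition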
[11] = Vero cell cytotoxicity, dose response, cytotoxicity control for Vif-APOBEC3G degradation inhibitor project, Vero cells (AID 1117358); type: functional; conditions: Human immunodeficiency virus 1, Vero
[12] = biological target: RNA-editing ligase 1, mitochondrial (Trypanosoma brucei brucei, UniProt P86926); experiment: TbREL1 ligase inhibitors, dose response, biochemical, fluorescence, Trypanosoma brucei (AID 1117295); type: functional
Genome polyprotein = Genome polyprotein (dengue virus type 2, UniProt P29990); experiment: Dengue-2 NS5 methyltransferase inhibitors, primary screen, biochemical, confirmation dose response (AID 588689); type: functional
[13] = biological target: Heat shock protein HSP 90-alpha (Homo sapiens, UniProt P07900); experiment: Luminescence-based dose response biochemical high throughput screening assay for inhibitors of the Heat Shock Protein 90 (HSP90). [Related pubchem assays: 1831 (Summary AID.), 1846 (Confirmation screen.), 1789 (Primary screen.)]
H4 = experiment: Luminescence Cell-Based Dose Response HTS to Identify Activators of 5'UTR Stem-Loop Driven Prion Protein mRNA Translation in H4 Neuroglioblastoma Cells. [Related pubchem assays: 1829 (Project Summary), 1814 (Primary HTS)]; type: functional; conditions: Homo sapiens
[14] = Luminescence Cell-Based Dose Response HTS to Identify Activators of Luciferase Translation or Activity in H4 […] Cells. [Related pubchem assays: 1829 (Project Summary), 1814 (Primary HTS)]; type: functional
Aminopeptidase N = biological target: T4, Aminopeptidase N (Plasmodium falciparum FcB1/Columbia, UniProt O96935); experiment: P. falciparum M1AAP inhibitors, biochemical, fluorogenic H-Leu-NHMec substrate, 1536-well (AID 1445); set-up: species or system Plasmodium falciparum 3D7, 3D7
T4 sequence (O96935 whole entry): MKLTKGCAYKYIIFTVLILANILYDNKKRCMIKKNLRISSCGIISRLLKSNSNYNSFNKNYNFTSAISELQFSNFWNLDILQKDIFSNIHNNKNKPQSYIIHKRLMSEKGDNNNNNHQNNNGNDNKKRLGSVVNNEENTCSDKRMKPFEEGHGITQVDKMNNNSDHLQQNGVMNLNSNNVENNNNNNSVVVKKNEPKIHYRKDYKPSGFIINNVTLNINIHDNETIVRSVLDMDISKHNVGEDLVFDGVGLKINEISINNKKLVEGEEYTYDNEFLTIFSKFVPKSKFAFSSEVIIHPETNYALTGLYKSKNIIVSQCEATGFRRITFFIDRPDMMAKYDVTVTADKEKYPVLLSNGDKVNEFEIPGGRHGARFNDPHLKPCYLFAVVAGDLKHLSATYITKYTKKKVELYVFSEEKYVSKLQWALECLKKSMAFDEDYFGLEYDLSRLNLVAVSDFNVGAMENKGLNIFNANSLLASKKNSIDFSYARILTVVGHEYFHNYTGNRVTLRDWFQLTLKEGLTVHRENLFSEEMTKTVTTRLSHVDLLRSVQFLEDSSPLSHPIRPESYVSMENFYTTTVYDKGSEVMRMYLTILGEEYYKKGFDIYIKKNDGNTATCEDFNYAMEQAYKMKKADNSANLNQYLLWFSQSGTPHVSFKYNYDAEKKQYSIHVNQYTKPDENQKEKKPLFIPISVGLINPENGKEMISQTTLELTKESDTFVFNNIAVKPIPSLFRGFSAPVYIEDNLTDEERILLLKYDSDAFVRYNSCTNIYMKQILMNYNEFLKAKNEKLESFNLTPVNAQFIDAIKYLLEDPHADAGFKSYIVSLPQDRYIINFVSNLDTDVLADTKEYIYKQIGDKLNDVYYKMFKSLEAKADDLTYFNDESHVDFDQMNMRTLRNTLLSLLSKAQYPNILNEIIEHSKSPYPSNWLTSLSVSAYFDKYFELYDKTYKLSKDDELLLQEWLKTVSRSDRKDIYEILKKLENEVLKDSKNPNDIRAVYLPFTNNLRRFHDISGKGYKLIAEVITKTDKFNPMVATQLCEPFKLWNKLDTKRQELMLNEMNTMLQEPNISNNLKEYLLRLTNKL

[15] = biological target: Sphingosine 1-phosphate receptor 2 (Homo sapiens, UniProt O95136); experiment: Dose Response Cell Based Assay for Agonists of the S1P2 Receptor. [Related pubchem assays: 729, 736, 843 ]; type: functional
Sphingosine 1-phosphate receptor 2, sequence (O95136 whole entry): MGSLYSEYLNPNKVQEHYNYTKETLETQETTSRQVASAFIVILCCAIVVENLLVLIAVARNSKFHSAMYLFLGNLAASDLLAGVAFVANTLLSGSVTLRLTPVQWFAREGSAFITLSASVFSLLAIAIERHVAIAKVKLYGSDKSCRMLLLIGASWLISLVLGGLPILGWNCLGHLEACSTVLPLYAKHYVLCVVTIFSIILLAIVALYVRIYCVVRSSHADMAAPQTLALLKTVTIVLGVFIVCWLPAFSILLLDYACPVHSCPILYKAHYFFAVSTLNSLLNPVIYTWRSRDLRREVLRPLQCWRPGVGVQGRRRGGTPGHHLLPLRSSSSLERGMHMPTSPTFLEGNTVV

T1 sequence (P11940 whole entry): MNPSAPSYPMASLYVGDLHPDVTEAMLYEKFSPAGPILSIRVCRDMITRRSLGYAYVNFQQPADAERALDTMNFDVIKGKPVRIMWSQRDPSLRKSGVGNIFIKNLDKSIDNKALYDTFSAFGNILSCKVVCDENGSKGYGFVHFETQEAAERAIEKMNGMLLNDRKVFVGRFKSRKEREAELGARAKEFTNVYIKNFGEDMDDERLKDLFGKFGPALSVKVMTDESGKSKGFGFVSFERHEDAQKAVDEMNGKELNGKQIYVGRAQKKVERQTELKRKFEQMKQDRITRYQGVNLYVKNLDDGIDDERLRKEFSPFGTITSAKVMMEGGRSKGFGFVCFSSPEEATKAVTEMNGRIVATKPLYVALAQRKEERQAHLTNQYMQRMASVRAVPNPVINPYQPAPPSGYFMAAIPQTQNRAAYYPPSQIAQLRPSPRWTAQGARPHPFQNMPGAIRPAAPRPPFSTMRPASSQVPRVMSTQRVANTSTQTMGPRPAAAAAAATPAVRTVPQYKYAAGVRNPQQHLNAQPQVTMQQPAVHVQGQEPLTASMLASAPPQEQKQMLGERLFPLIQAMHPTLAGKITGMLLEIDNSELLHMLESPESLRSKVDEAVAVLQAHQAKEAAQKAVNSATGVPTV
RNA-editing ligase 1, mitochondrial, sequence (P86926 whole entry): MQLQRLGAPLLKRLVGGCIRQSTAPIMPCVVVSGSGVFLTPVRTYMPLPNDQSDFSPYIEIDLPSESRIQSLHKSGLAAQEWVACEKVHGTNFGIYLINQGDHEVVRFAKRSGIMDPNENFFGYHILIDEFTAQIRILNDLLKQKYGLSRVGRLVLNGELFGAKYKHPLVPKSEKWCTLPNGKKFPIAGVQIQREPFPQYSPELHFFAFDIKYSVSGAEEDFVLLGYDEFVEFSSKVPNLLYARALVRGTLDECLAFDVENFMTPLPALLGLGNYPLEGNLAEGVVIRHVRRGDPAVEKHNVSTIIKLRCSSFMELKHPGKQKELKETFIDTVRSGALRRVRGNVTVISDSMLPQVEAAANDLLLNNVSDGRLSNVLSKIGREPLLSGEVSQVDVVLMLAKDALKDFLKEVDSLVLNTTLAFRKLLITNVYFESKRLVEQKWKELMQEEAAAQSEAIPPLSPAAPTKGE
Caspase-7, sequence (P55210 24-198 limits assumed): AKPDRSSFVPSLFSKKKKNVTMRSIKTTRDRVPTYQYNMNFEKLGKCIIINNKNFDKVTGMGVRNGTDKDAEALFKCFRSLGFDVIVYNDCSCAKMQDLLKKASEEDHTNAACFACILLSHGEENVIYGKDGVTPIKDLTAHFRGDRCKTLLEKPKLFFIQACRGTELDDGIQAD
Caspase-7, sequence (P55210 207-303 limits assumed): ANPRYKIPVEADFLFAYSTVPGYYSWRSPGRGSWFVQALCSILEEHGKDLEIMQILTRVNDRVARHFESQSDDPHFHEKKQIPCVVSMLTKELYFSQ
Caspase-9, sequence (P55211 1-315 limits assumed): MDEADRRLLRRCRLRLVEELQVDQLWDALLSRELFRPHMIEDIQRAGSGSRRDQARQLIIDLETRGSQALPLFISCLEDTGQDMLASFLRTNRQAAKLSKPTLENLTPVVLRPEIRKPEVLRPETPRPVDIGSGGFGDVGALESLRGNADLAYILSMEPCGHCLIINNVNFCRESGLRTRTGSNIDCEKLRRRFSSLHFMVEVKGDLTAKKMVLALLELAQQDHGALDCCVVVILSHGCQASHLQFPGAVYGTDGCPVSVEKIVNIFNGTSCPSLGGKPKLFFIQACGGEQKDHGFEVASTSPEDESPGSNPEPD
Caspase-9, sequence (P55211 331-416 limits assumed): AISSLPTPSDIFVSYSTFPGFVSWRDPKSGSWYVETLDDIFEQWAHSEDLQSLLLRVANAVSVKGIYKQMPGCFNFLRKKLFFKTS
Genome polyprotein, sequence (P29990 2492-3391 limits assumed): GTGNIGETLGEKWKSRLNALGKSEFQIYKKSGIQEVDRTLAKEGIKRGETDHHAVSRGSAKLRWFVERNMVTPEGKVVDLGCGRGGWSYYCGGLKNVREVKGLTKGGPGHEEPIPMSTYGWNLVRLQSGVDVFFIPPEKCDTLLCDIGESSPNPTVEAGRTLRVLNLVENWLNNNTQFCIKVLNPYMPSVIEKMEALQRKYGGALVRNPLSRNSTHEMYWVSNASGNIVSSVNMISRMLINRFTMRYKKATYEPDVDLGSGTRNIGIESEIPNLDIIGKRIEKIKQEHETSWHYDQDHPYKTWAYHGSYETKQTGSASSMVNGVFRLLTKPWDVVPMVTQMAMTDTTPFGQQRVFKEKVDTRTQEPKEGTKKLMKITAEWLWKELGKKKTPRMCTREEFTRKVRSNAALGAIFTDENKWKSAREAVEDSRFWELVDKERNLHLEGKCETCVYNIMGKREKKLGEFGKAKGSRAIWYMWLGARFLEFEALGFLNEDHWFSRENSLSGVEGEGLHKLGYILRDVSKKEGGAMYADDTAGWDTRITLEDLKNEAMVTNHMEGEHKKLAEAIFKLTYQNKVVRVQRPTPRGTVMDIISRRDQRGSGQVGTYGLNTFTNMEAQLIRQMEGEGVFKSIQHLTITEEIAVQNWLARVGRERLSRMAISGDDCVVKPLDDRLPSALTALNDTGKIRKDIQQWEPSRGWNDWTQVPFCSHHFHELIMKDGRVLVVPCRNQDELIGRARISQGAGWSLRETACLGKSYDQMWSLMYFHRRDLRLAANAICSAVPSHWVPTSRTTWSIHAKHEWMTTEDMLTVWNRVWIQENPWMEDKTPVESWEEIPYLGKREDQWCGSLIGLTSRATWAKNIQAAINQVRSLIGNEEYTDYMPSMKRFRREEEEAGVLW

## COc1cc(NC(C)CCCNC(C)C)c2ncccc2c1OC (stereo unspecified)
Caspase-7
  AC50: 23.2 µM (active)
[1]
  IC50: > 66 µM (inactive)
Caspase-9
  AC50: > 70 µM (inactive)
Caspase-6
  AC50: 1.52 µM (active)
[2]
  IC50: 31.7 µM (active)
[3]
  IC50: 49.3 µM (inactive)

## Cn1c(-c2ccc(Cl)cc2)ccc(C#N)c1=O
[4]
  EC50: 8.33 µM (active)
[5]
  AC50: 68.9 µM (active)
[6]
  EC50: > 120 µM (not active)
[7]
  IC50: > 100 µM (active)
[8]
  EC50: > 120 µM (not active)
[9]
  AC50: 2.46 µM (active)
[10]
  AC50: 2.62 µM (active)

## CSc1cccc(-n2cc(-c3ccc4c(c3)OCO4)nc2O)c1
[11]
  CC50: > 40 µM (active)

## O=C(CCN1C(=O)S/C(=C/c2ccccc2)C1=O)Nc1ccc(O)c(C(=O)O)c1
[12]
  IC50: > 96.6 µM (inactive)
Genome polyprotein
  IC50: 91.6 µM (active)

## CCc1ccc(OCc2ccc(C(=O)OC)o2)cc1
[13]
  IC50: 0.551 µM (active)
H4
  EC50: 2.81 µM (active)
[14]
  EC50: 16.4 µM (active)

## O=C(Nc1ccccn1)Nc1cccs1
Aminopeptidase N
  IC50: 61.8 µM (active)
[15]
  EC50: > 50 µM (not active)
